# Results taken from US20150374672A1, “PRE-SELECTION OF SUBJECTS FOR THERAPEUTIC TREATMENT WITH AN HSP90 INHIBITORY COMPOUND BASED ON CHEMOSENSITIVE STATUS” (Synta Pharmaceuticals Corp., priority 2014, published 2015).
# Columns and labels:
# [1] = tested on: advanced solid tumor malignancies; test: Phase 1 dose-escalation, pharmacokinetic study of ganetespib in combination with docetaxel; assay type: in vivo, human; details: ganetespib schedule Days 1 and 15 of each cycle, preliminary data
# Procedure: Patients were dosed once-weekly. Dosing was with 150 mg/m^2 ganetespib (days 1 and 15)+60 mg/m^2 docetaxel (Day 1). Initial ganetespib dosing regimen was Days 1 and 8; however, Day 8 was later changed to Day 15. Day 4 dosing with single agent ganetespib was added. The dose cycle was 2 weeks+1 week rest. The primary objective of this study was to determine the recommended doses for the combination of ganetespib and docetaxel in patients with advanced solid tumor malignancies. Secondary objectives were to define the DLTs associated with ganetespib in combination with docetaxel dosing, assess possible PK effects, and evaluate the safety, tolerability, and preliminary evidence of anti-tumor activity of the combination. A total of 27 patients were enrolled.
# [2] = tested on: solid and hematologic cancers; test: Preclinical studies of anti-cancer activity; details: monotherapy and in combination with widely used anti-cancer agents
# [3] = Safety of ganetespib across clinical trials (over 1,000 patients); assay type: in vivo, human
# From the text: Ganetespib has been evaluated in a broad range of cancer clinical trials including the GALAXY NSCLC program (GALAXY-1 and GALAXY-2) in combination with docetaxel chemotherapy, and as monotherapy in certain genetically-defined targeted patient populations. A favorable safety profile has been consistently observed across clinical trials, involving over 1,000 patients treated with ganetespib to date. […] In the clinical trials conducted to date, ganetespib has shown promising activity both in combination with chemotherapy and as a monotherapy.
# advanced NSCLC = test: GALAXY-1 Phase 2b trial, ganetespib plus docetaxel vs. docetaxel alone: OS and PFS; assay type: in vivo, human
# From the text: The GALAXY-1 trial was initiated in patients with advanced NSCLC who received one prior treatment for advanced disease, i.e., a second-line treatment setting. GALAXY-1 compared treatment with docetaxel (D) alone, which is approved for second-line treatment, vs. treatment with ganetespib (G) plus docetaxel (D). The aims of the study were to:
# The key GALAXY-1 patient populations comprised populations with (1) elevated LDH (eLDH), (2) KRAS mutations (mKRAS) and/or (3) time since diagnosis of cancer of 6 months or greater (chemosensitive). A rationale for selecting a population with elevated LDH is that LDH-A is a marker of HIF-1α activity, and HIF-1α is a Hsp90 client, and drives invasiveness and metastasis. A rationale for selecting a population with KRAS mutation is that RAS signaling kinases are Hsp90 clients, and there is a medical need. A rationale for selecting a population in which the time since diagnosis of cancer is 6 months or greater (chemosensitive population) is that key cell cycle checkpoint/DNA repair kinases are Hsp90 clients. Additionally, key mitochondrial apoptosis pathway proteins are Hsp90 clients.
# (§1) Patients in both arms of GALAXY-1 received a standard regimen of docetaxel 75 mg/m^2 on day 1 of a 21-day treatment cycle. Patients in the combination arm also received ganetespib 150 mg/m^2 on days 1 and 15. Treatment continued until disease progression or until treatment intolerance. To ensure balance of prognostic factors between the two arms, patients were stratified by ECOG performance status (these scales and criteria are used by doctors and researchers to assess how a patient's disease is progressing, assess how the disease affects the daily living abilities of the patient, and determine appropriate treatment and prognosis), baseline lactate dehydrogenase (LDH) level, smoking status, and time since diagnosis of advanced disease.
# To ensure the specified number of eLDH and mKRAS patients were included, a total of 385 patients were enrolled in GALAXY-1.
# Hazard ratios were calculated with Cox proportional hazards model. • Unadjusted: univariate analysis • Adjusted: pre-specified analysis adjusting for multiple prognostic variables such as gender, smoking status, LDH, ECOG performance status, interval since diagnosis of advanced disease, age, total baseline target lesion size, and geographic region.
# This was a randomized, multicenter, parallel group study. Patients in both arms were treated with docetaxel per standard practice until disease progression or intolerability. Patients on both arms were treated until intolerability or disease progression per RECIST.
# Key eligibility criteria were Stage IIIB/IV NSCLC; ECOG 0,1; one prior therapy in advanced setting; measurable disease by RECIST; documented disease progression; clinically stable CNS metastases; available tumor tissues; and adequate organ function.
# Patients were randomized in a 1:1 ratio to receive either ganetespib in combination with docetaxel or docetaxel alone.
# The experimental arm was dosed with ganetespib in combination with docetaxel 75 mg/m^2. Ganetespib (150 mg/m^2) and docetaxel (75 mg/m^2) were administered on Day 1 of a 3-week cycle. Ganetespib (150 mg/m^2) was administered again on Day 15 of each 3-week cycle. Docetaxel 75 mg/m^2 was administered on Day 1 of a 3-week treatment cycle. 385 patients were enrolled. A total of 381 patients received at least one dose of study drug.
# [4] = GALAXY-1 safety profile (adverse events) in adenocarcinoma patients
# Procedure: as §1
# [5] = Adenocarcinoma population, N = 253
# [6] = Chemosensitive population, N = 177
compound,measurement,setting,value
CC(C)c1cc(-c2nnc(O)n2-c2ccc3c(ccn3C)c2)c(O)cc1O [Ganetespib],recommended Phase 2 dose,[1],150 mg/m^2
same,anti-cancer activity in preclinical studies,[2],potent anti-cancer activity
same,most common adverse event,[3]; clinical trials,"transient, mild or moderate diarrhea"
same,toxicities observed across clinical trials,"[3]; over 1,000 patients treated",not shown the serious liver or common ocular toxicities
"CC(=O)O[C@@]12CO[C@@H]1C[C@H](O)[C@@]1(C)C(=O)[C@H](O)C3=C(C)[C@@H](OC(=O)[C@H](O)[C@@H](NC(=O)OC(C)(C)C)c4ccccc4)C[C@@](O)([C@@H](OC(=O)c4ccccc4)[C@H]21)C3(C)C [D, docetaxel]",recommended Phase 2 dose,[1],75 mg/m^2
same,Median OS,advanced NSCLC; [5],8.4 months
same,Median PFS,advanced NSCLC; [5],3.2 months
same,Median OS,advanced NSCLC; [6],7.4 months
same,Median PFS,advanced NSCLC; [6],3.4 months
same,Median OS,"advanced NSCLC; eLDH population, N = 87",5.1 months
same,Median PFS,"advanced NSCLC; eLDH population, N = 87",2.7 months
same,Median OS,"advanced NSCLC; mKRAS population, N = 89",6.4 months
same,Median PFS,"advanced NSCLC; mKRAS population, N = 89",3.0 months
same,proportion of patients with AEs leading to death,[4]; adenocarcinoma patients,12%
same,"diarrhea, all grades","[4]; human, in vivo",16%
same,"fatigue, all grades","[4]; human, in vivo",24%
same,grade 3 or 4 anemia,"[4]; human, in vivo",2%
same,grade 3 or 4 fatigue,"[4]; human, in vivo",4%
same,grade 3 or 4 febrile neutropenia,"[4]; human, in vivo",4%
same,grade 3 or 4 neutropenia,"[4]; human, in vivo",42%
same,incidence of grade 3 or 4 diarrhea,"[4]; human, in vivo",0%
same,"neutropenia, all grades","[4]; human, in vivo",45%
same,proportion of patients with AEs leading to treatment discontinuation,"[4]; human, in vivo",6%
